What was measured:
[1] = tested on: isogenic HCT116 cell line panel; test: Cell-Titer glow cytotoxicity, potency comparison across the panel; format: cell-based, human; conditions: IC50 values, independently of HCT116 p53-status
Protocol: (§1) CellTiter-Glo® luminescent cell viability assay. Cells were seeded in 96-well plates at a density of 5×10^3 cells per well. 20 μL of CellTiter-Glo® Reagent was added directly to the wells, following the manufacturers protocol. The bioluminescence signal was determined using an IVIS imaging system, optionally at a period of 48-72 hours after treatment.
CB002-analog #4 is a potent anti-tumor agent in vitro and in vivo. The inventors focused on lead CB002-analog #4 and investigated its therapeutic index in vitro and in vivo. The inventors treated an isogenic HCT116 cell line panel with 100 μM CB002 or 25 μM CB002-analog #4 and established IC50 values by the Cell-Titer glow cytotoxicity assay. Across this panel, CB002-analog #4 has a 20-fold to 30-fold range in IC50 values, independently of the HCT116 p53-status.

[2] = tested on: colorectal cancer patient-derived organoid; test: Cytotoxicity and immunofluorescence in patient-derived organoid; format: cell-based, human; conditions: for cleaved caspase-3 staining (apoptotic cells): IC50 doses; for ethidium homodimer staining (dead cells): compared to vehicle control
Protocol: as §1
Immunohistochemistry. 30,000 cells/well were seeded in 8-chamber slides. Cells were washed with phosphate-buffered saline at the harvesting time point and fixed with 4% parafornaldehyde for 25 minutes. Cells were then washed with phosphate-buffered saline and permeabilized with 0.2% Triton X-100 for 5-10 minutes. Cells were then washed with phosphate-buffered saline and incubated overnight 1:100 with the primary antibody Cyt-C (#sc-13560, Santa Cruz Biotechnology, Santa Cruz, Calif., USA), Tom-20 (#42406), commercially available from Cell Signaling Technology, Inc., Danvers, Mass. USA), cells were washed with phosphate-buffered saline and incubated with secondary antibody 1:200 goat-anti mouse Alexa Fluor 488 (#A-11008, Thermo Fisher Scientific, Waltham, Mass., USA) and Cy3 AffiniPure Donkey anti-rabbit (#711-165-152, Jackson ImmunoResearch, West Grove, Pa., USA) for one hour followed by phosphate-buffered saline washing, 1:400 Dapi staining, washed with phosphate-buffered saline, and imaged. Organoid viability imaging was determined by CellTrace™ Calcein Green (#C34852, Thermo Fisher Scientific, Waltham, Mass., USA), Ethidium Homodimer-1 (#E1169, Thermo Fisher Scientific, Waltham, Mass., USA), Ki67 incubated at 37° C. for one hour then washed with phosphate-buffered saline and imaged. Imaging was done using a Leica Confocal Microscope.

[3] = tested on: human SW480 colorectal cancer cells; test: Tumor xenograft efficacy in NSG mice; format: in vivo; conditions: 50 mg/kg oral gavage three times per week, 5-weeks of treatment
Protocol: Drug efficacy using in vivo tumor xenografts. In vivo drug efficacy studies were performed on ten NSG female randomized mice per cohort. The mice had tested negative for any pathogen. Tumor inoculation was induced by subcutaneous injection in the left and right dorsal flank, each with a 150 μL suspension of 1-5×10^6 human colon cancer cells in phosphate-buffered saline with Matrigel (1:1). After tumor size reached 100 mm^3, mice were treated 3×/week with dimethyl sulfoxide vehicle or CB002-analog #4 via oral gavage (22-gauge needle) in a solution of 10% dimethyl sulfoxide, 20% Kolliphor® EL (Sigma cat. no. C5135), and 70% phosphate-buffered saline. Mouse weight and tumor measurements were recorded one-two times per week. Tumor volume was calculated as V=0.5*L*W^2, where L is length and W is the width of the tumor. At the end of the assay, mice were euthanized by CO2. All in vivo procedures were performed according to an approved Institutional Animal Care and Use Committee (IACUC) protocol.

| SMILES | potency relative to CB002 [1] | organoid size (calcein staining) [2] | cleaved caspase-3 staining (apoptotic cells) [2] | ethidium homodimer staining (dead cells) [2] | Ki-67 staining (proliferating cells) ([2]; seventy-two hours, dose-dependent) | cytotoxicity (cell viability response curve) ([2]; versus CB002 parent compound) | tumor volume [3] |
| --- | --- | --- | --- | --- | --- | --- | --- |
| Cn1c(=O)c2[nH]c(Nc3cccc(C(F)(F)F)c3)nc2n(C)c1=O [CB002-analog #4] | 20-30 times | smaller in size | increases apoptotic cells | increase of ethidium homodimer staining | decreases the population of proliferating cells | enhances cytotoxicity compared to the CB002 parent compound | lower tumor volume than vehicle control |
| Cn1c(=O)c2[nH]c(Nc3ccccc3)nc2n(C)c1=O [CB002] | – | – | increases apoptotic cells | increase of ethidium homodimer staining | – | – | – |

Source: patent US20230219957A1, “SMALL MOLECULE CB002-ANALOGES RESTORE THE P53 PATHWAY AND TARGET S-PHASE CHECKPOINT” (Brown University, priority 2020, published 2023)
